From paper PMC5234074 (2017) come the findings set out here.

In assay [1] the test system is 158 nt thiC transcript (without RNAP) (RNA, riboswitch) UAAUUUCUUGUCGGAGUGCCUUAACUGGCUGAGACCGUUUAUUCGGGAUCCGCGGAACCUGAUCAGGCUAAUACCUGCGAAGGGAACAAGAGUUAAUCUGCUAUCGCAUCGCCCCUGCGGCGAUCGUCUCUUGCUUCAUCCGUCGUCUGACAAGCCAC
Briefly: RNase H cleavage of free transcript. Conditions: 20 mM MgCl2, 20 mM NaCl (transcription); 20 mM MgCl2, 100 mM KCl (RNase H step); Tris-HCl pH 8.0, 37 °C; 10 μM TPP; cleavage ratio 3.4; less efficient than EC-158.

For assay [2], the system named is 143 nt thiC transcript (without RNAP) (RNA, riboswitch) UAAUUUCUUGUCGGAGUGCCUUAACUGGCUGAGACCGUUUAUUCGGGAUCCGCGGAACCUGAUCAGGCUAAUACCUGCGAAGGGAACAAGAGUUAAUCUGCUAUCGCAUCGCCCCUGCGGCGAUCGUCUCUUGCUUCAUCCGU
Briefly: RNase H cleavage of free transcript. The note with it: 20 mM MgCl2, 20 mM NaCl (transcription); 20 mM MgCl2, 100 mM KCl (RNase H step); Tris-HCl pH 8.0, 37 °C; 10 μM TPP; cleavage ratio higher than 158 nt transcript.

Assay [3] has as its system EC-100 (thiC 1-100 nascent transcript) (RNA, riboswitch) UAAUUUCUUGUCGGAGUGCCUUAACUGGCUGAGACCGUUUAUUCGGGAUCCGCGGAACCUGAUCAGGCUAAUACCUGCGAAGGGAACAAGAGUUAAUCUG
Briefly: RNase H cleavage of stalled elongation complex, P1 probe. The note with it: 20 mM MgCl2, 20 mM NaCl (transcription); 20 mM MgCl2, 100 mM KCl (RNase H step); Tris-HCl pH 8.0, 37 °C; 10 μM TPP; cleavage ratio 1.3; RNAP bound.

Assay [4] deals with EC-108 (thiC 1-108 nascent transcript) (RNA, riboswitch) UAAUUUCUUGUCGGAGUGCCUUAACUGGCUGAGACCGUUUAUUCGGGAUCCGCGGAACCUGAUCAGGCUAAUACCUGCGAAGGGAACAAGAGUUAAUCUGCUAUCGCA
The description is as above. The note with it: 20 mM MgCl2, 20 mM NaCl (transcription); 20 mM MgCl2, 100 mM KCl (RNase H step); Tris-HCl pH 8.0, 37 °C; 10 μM TPP; cleavage ratio 6.7; RNAP bound.

Assay [5] concerns EC-197 (thiC 1-197 nascent transcript) (RNA, riboswitch) UAAUUUCUUGUCGGAGUGCCUUAACUGGCUGAGACCGUUUAUUCGGGAUCCGCGGAACCUGAUCAGGCUAAUACCUGCGAAGGGAACAAGAGUUAAUCUGCUAUCGCAUCGCCCCUGCGGCGAUCGUCUCUUGCUUCAUCCGUCGUCUGACAAGCCACGUCCUUAACUUUUUGGAAUGAGCUAUGUCUGCAACAAAA
Described as above. Conditions: 20 mM MgCl2, 20 mM NaCl (transcription); 20 mM MgCl2, 100 mM KCl (RNase H step); Tris-HCl pH 8.0, 37 °C; 10 μM TPP; RNAP bound; sensing partially recovered.

For assay [6], the system named is EC-207 (thiC 1-207 nascent transcript) (RNA, riboswitch) UAAUUUCUUGUCGGAGUGCCUUAACUGGCUGAGACCGUUUAUUCGGGAUCCGCGGAACCUGAUCAGGCUAAUACCUGCGAAGGGAACAAGAGUUAAUCUGCUAUCGCAUCGCCCCUGCGGCGAUCGUCUCUUGCUUCAUCCGUCGUCUGACAAGCCACGUCCUUAACUUUUUGGAAUGAGCUAUGUCUGCAACAAAACUGACCCGCC
Described as above. Conditions: 20 mM MgCl2, 20 mM NaCl (transcription); 20 mM MgCl2, 100 mM KCl (RNase H step); Tris-HCl pH 8.0, 37 °C; 10 μM TPP; RNAP bound; sensing partially recovered.

For `Cc1ncc(C[n+]2csc(CCOP(=O)(O)OP(=O)(O)O)c2C)c(N)n1`, the binding entry in assay [1] is on record as “yes”; in assay [2], “yes”; in assay [3], “weak”; in assay [4], “yes”; in assay [5], “yes”; in assay [6] it was “yes”.
